pIC50: −log10 of the molar value.

As usually defined, the pIC50 is −log10 of the IC50, conventionally taken in molar units.

For the first assay, the system named is L1210. The experiment in a line: Cytotoxicity against mouse L1210 cells assessed as reduction in cell viability by MTT assay. Format: functional, cell-based. (In general: Tetrazolium assays rely on reduction of a dye to a coloured formazan, in cell work by metabolically active cells.)
As for `CC1COc2c(N3CCN(C)CC3)c(F)cc3c(=O)c(-c4nc5scc(-c6ccc([N+](=O)[O-])cc6)n5n4)cn1c23` (stereo not given), the pIC50 was 4.25 to 5.44.
Take `CCn1cc(-c2nc(SCc3nnc(-c4ccc(OC)c(OC)c4)o3)n(CN(C)C)n2)c(=O)c2cc(F)c(N3CCN(C)CC3)cc21`: the pIC50 was 4.61 to 5.82.
Still for that read-out and setting: as for `COc1ccc(-c2csc3nc(-c4cn(C5CC5)c5cc(N6CCN(C)CC6)c(F)cc5c4=O)nn23)cc1`, the figure is 4.25 to 5.44.
As for `CCn1cc(-c2nc(SCc3nnc(-c4cc(OC)c(OC)c(OC)c4)o3)n(CN(C)C)n2)c(=O)c2cc(F)c(N3CCN(C)CC3)cc21`, the negative logarithm of the IC50 (pIC50) was 4.61 to 5.82.
Take `CCn1cc(-c2nc3scc(-c4ccccc4O)n3n2)c(=O)c2cc(F)c(N3CCN(C)CC3)cc21`: the pIC50 was 4.25 to 5.44.
With `CCn1cc(-c2nc3scc(-c4ccccc4OC)n3n2)c(=O)c2cc(F)c(N3CCN(C)CC3)cc21`, the negative logarithm of the IC50 (pIC50) was 4.25 to 5.44.
Regarding `COc1ccc(-c2csc3nc(-c4cn5c6c(c(N7CCN(C)CC7)c(F)cc6c4=O)OCC5C)nn23)cc1` (stereo not given), the negative logarithm of the IC50 (pIC50) was 4.45 to 4.57.
Take `CC1COc2c(N3CCN(C)CC3)c(F)cc3c(=O)c(-c4nc5scc(-c6ccccc6)n5n4)cn1c23` (stereo not given): the negative-log IC50 (pIC50) was 4.25 to 5.44.
Still for that read-out and setting: the value for `CCn1cc(-c2nc3scc(-c4ccccc4)n3n2)c(=O)c2cc(F)c(N3CCN(C)CC3)cc21` was 4.25 to 5.44.

In another assay the test system is SMMC-7721. The assay is described as follows: Cytotoxicity against human SMMC7721 cells assessed as reduction in cell viability by MTT assay. The class given is functional, cell-based.
For the compound `CC1COc2c(N3CCN(C)CC3)c(F)cc3c(=O)c(-c4nc5scc(-c6ccc([N+](=O)[O-])cc6)n5n4)cn1c23` (stereo not given), the pIC50 was 4.25 to 5.44.
With `CCn1cc(-c2nc(SCc3nnc(-c4ccc(OC)c(OC)c4)o3)n(CN(C)C)n2)c(=O)c2cc(F)c(N3CCN(C)CC3)cc21`, the pIC50 is 4.61 to 5.82.
On to `COc1ccc(-c2csc3nc(-c4cn(C5CC5)c5cc(N6CCN(C)CC6)c(F)cc5c4=O)nn23)cc1`, for which the pIC50 is 4.25 to 5.44.
On the same count and under the same terms, as for `CCn1cc(-c2nc(SCc3nnc(-c4cc(OC)c(OC)c(OC)c4)o3)n(CN(C)C)n2)c(=O)c2cc(F)c(N3CCN(C)CC3)cc21`, the figure is 4.61 to 5.82; as for `CCn1cc(-c2nc3scc(-c4ccccc4O)n3n2)c(=O)c2cc(F)c(N3CCN(C)CC3)cc21`, 4.25 to 5.44.
As for `CCn1cc(-c2nc3scc(-c4ccccc4OC)n3n2)c(=O)c2cc(F)c(N3CCN(C)CC3)cc21`, the pIC50 is 4.25 to 5.44.
Consider `COc1ccc(-c2csc3nc(-c4cn5c6c(c(N7CCN(C)CC7)c(F)cc6c4=O)OCC5C)nn23)cc1` (stereo not given), for which the negative logarithm of the IC50 (pIC50) was 4.45 to 4.57.
On the same count and under the same terms, the value for `CC1COc2c(N3CCN(C)CC3)c(F)cc3c(=O)c(-c4nc5scc(-c6ccccc6)n5n4)cn1c23` (stereo not given) was 4.25 to 5.44.
For the compound `CCn1cc(-c2nc3scc(-c4ccccc4)n3n2)c(=O)c2cc(F)c(N3CCN(C)CC3)cc21`, the pIC50 is 4.25 to 5.44.

The test system of a further assay is CAPAN-1. The experiment in a line: Cytotoxicity against human Capan1 cells assessed as reduction in cell viability by MTT assay. The class given is functional, cell-based.
For the compound `CC1COc2c(N3CCN(C)CC3)c(F)cc3c(=O)c(-c4nc5scc(-c6ccc([N+](=O)[O-])cc6)n5n4)cn1c23` (stereo not given), the negative-log IC50 (pIC50) was 4.25 to 5.44.
Still for that read-out and setting: as for `CCn1cc(-c2nc(SCc3nnc(-c4ccc(OC)c(OC)c4)o3)n(CN(C)C)n2)c(=O)c2cc(F)c(N3CCN(C)CC3)cc21`, the figure is 4.61 to 5.82; as for `COc1ccc(-c2csc3nc(-c4cn(C5CC5)c5cc(N6CCN(C)CC6)c(F)cc5c4=O)nn23)cc1`, 4.25 to 5.44; as for `CCn1cc(-c2nc(SCc3nnc(-c4cc(OC)c(OC)c(OC)c4)o3)n(CN(C)C)n2)c(=O)c2cc(F)c(N3CCN(C)CC3)cc21`, 4.61 to 5.82.
`CCn1cc(-c2nc3scc(-c4ccccc4O)n3n2)c(=O)c2cc(F)c(N3CCN(C)CC3)cc21`: the pIC50 is 4.25 to 5.44.
Consider `CCn1cc(-c2nc3scc(-c4ccccc4OC)n3n2)c(=O)c2cc(F)c(N3CCN(C)CC3)cc21`, for which the negative logarithm of the IC50 (pIC50) was 4.25 to 5.44.
On the same count and under the same terms, as for `COc1ccc(-c2csc3nc(-c4cn5c6c(c(N7CCN(C)CC7)c(F)cc6c4=O)OCC5C)nn23)cc1` (stereo not given), the figure is 4.45 to 4.57; as for `CC1COc2c(N3CCN(C)CC3)c(F)cc3c(=O)c(-c4nc5scc(-c6ccccc6)n5n4)cn1c23` (stereo not given), 4.25 to 5.44.
With `CCn1cc(-c2nc3scc(-c4ccccc4)n3n2)c(=O)c2cc(F)c(N3CCN(C)CC3)cc21`, the pIC50 is 4.25 to 5.44.

The next assay has as its system Hep 3B2. The experiment in a line: Cytotoxicity against human Hep3B cells assessed as reduction in cell viability by MTT assay. The class given is functional, cell-based.
As to `CC1COc2c(N3CCN(C)CC3)c(F)cc3c(=O)c(-c4nc5scc(-c6ccc([N+](=O)[O-])cc6)n5n4)cn1c23` (stereo not given), the negative-log IC50 (pIC50) was 4.25 to 5.44.
`CCn1cc(-c2nc(SCc3nnc(-c4ccc(OC)c(OC)c4)o3)n(CN(C)C)n2)c(=O)c2cc(F)c(N3CCN(C)CC3)cc21`: the negative-log IC50 (pIC50) is 4.61 to 5.82.
Take `COc1ccc(-c2csc3nc(-c4cn(C5CC5)c5cc(N6CCN(C)CC6)c(F)cc5c4=O)nn23)cc1`: the pIC50 was 4.25 to 5.44.
As for `CCn1cc(-c2nc(SCc3nnc(-c4cc(OC)c(OC)c(OC)c4)o3)n(CN(C)C)n2)c(=O)c2cc(F)c(N3CCN(C)CC3)cc21`, the pIC50 was 4.61 to 5.82.
Consider `CCn1cc(-c2nc3scc(-c4ccccc4O)n3n2)c(=O)c2cc(F)c(N3CCN(C)CC3)cc21`, for which the pIC50 was 4.25 to 5.44.
`CCn1cc(-c2nc3scc(-c4ccccc4OC)n3n2)c(=O)c2cc(F)c(N3CCN(C)CC3)cc21`: the negative-log IC50 (pIC50) is 4.25 to 5.44.
Take `COc1ccc(-c2csc3nc(-c4cn5c6c(c(N7CCN(C)CC7)c(F)cc6c4=O)OCC5C)nn23)cc1` (stereo not given): the pIC50 was 4.45 to 4.57.
In the case of `CC1COc2c(N3CCN(C)CC3)c(F)cc3c(=O)c(-c4nc5scc(-c6ccccc6)n5n4)cn1c23` (stereo not given), the pIC50 is 4.25 to 5.44.
On the same count and under the same terms, the value for `CCn1cc(-c2nc3scc(-c4ccccc4)n3n2)c(=O)c2cc(F)c(N3CCN(C)CC3)cc21` was 4.25 to 5.44.

A further assay relates to HL-60. The assay is described as follows: Cytotoxicity against human HL60 cells assessed as reduction in cell viability by MTT assay. The class given is functional, cell-based.
Turning to `CC1COc2c(N3CCN(C)CC3)c(F)cc3c(=O)c(-c4nc5scc(-c6ccc([N+](=O)[O-])cc6)n5n4)cn1c23` (stereo not given), the pIC50 was 4.25 to 5.44.
On the same count and under the same terms, the value for `CCn1cc(-c2nc(SCc3nnc(-c4ccc(OC)c(OC)c4)o3)n(CN(C)C)n2)c(=O)c2cc(F)c(N3CCN(C)CC3)cc21` was 4.61 to 5.82; that for `COc1ccc(-c2csc3nc(-c4cn(C5CC5)c5cc(N6CCN(C)CC6)c(F)cc5c4=O)nn23)cc1` was 4.25 to 5.44; that for `CCn1cc(-c2nc(SCc3nnc(-c4cc(OC)c(OC)c(OC)c4)o3)n(CN(C)C)n2)c(=O)c2cc(F)c(N3CCN(C)CC3)cc21` was 4.61 to 5.82.
On the same count and under the same terms, as for `CCn1cc(-c2nc3scc(-c4ccccc4O)n3n2)c(=O)c2cc(F)c(N3CCN(C)CC3)cc21`, the figure is 4.25 to 5.44; as for `CCn1cc(-c2nc3scc(-c4ccccc4OC)n3n2)c(=O)c2cc(F)c(N3CCN(C)CC3)cc21`, 4.25 to 5.44.
As for `COc1ccc(-c2csc3nc(-c4cn5c6c(c(N7CCN(C)CC7)c(F)cc6c4=O)OCC5C)nn23)cc1` (stereo not given), the negative logarithm of the IC50 (pIC50) was 4.45 to 4.57.
Still for that read-out and setting: as for `CC1COc2c(N3CCN(C)CC3)c(F)cc3c(=O)c(-c4nc5scc(-c6ccccc6)n5n4)cn1c23` (stereo not given), the figure is 4.25 to 5.44; as for `CCn1cc(-c2nc3scc(-c4ccccc4)n3n2)c(=O)c2cc(F)c(N3CCN(C)CC3)cc21`, 4.25 to 5.44.

These data come from ChEMBL document CHEMBL4613209, “Quinolone hybrids and their anti-cancer activities: An overview” (Eur J Med Chem, 2019).
